In US20230250066A1, “HERBICIDAL CINNOLINE DERIVATIVES” (SYNGENTA CROP PROTECTION AG, priority 2020, published 2023):

Tests used:
Type in all cases: in vivo
Setaria faberi (SETFA) [1] = test: Pre-emergence herbicidal test; settings: 1000 g/ha, evaluated after 13 days
Zea mays (ZEAMX) [2] = test: Post-emergence herbicidal test; settings: 1000 g/ha unless otherwise stated, evaluated after 13 days
Outline: (§1)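 Scores on a five-point scale: 5=81-100%, 4=61-80%, 3=41-60%, 2=21-40%, 1=10-20%, 0=0% damage. These are assessed 13 days after spraying at 1000 g/ha unless stated.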

Setaria faberi (SETFA) [3] = test: Post-emergence herbicidal test; settings: 1000 g/ha unless otherwise stated, evaluated after 13 days
Outline: as §1

[4] = tested on: Amaranthus retoflexus (AMARE); test: Post-emergence herbicidal test; settings: 1000 g/ha unless otherwise stated, evaluated after 13 days
Outline: as §1

[5] = tested on: Echinochloa crus-galli (ECHCG); test: Post-emergence herbicidal test; settings: 1000 g/ha unless otherwise stated, evaluated after 13 days
Outline: as §1

[6] = tested on: Ipomoea hederacea (IPOHE); test: Post-emergence herbicidal test; settings: 1000 g/ha unless otherwise stated, evaluated after 13 days
Outline: as §1

[7] = tested on: Abutilon theophrasti (ABUTH); test: Post-emergence herbicidal test; settings: 1000 g/ha unless otherwise stated, evaluated after 13 days
Outline: as §1

[8] = tested on: Echinochloa crus-galli (ECHCG); test: Pre-emergence herbicidal test; settings: 1000 g/ha, evaluated after 13 days
[9] = tested on: Ipomoea hederacea (IPOHE); test: Pre-emergence herbicidal test; settings: 1000 g/ha, evaluated after 13 days
Zea mays (ZEAMX) [10] = test: Pre-emergence herbicidal test; settings: 1000 g/ha, evaluated after 13 days
[11] = tested on: Abutilon theophrasti (ABUTH); test: Pre-emergence herbicidal test; settings: 1000 g/ha, evaluated after 13 days
[12] = tested on: Amaranthus retoflexus (AMARE); test: Pre-emergence herbicidal test; settings: 1000 g/ha, evaluated after 13 days

| Compound | percentage damage caused to the plant, five-point scale, SETFA (Setaria faberi (SETFA) [1]) | percentage damage caused to the plant, ZEAMX (five-point scale) (Zea mays (ZEAMX) [2]) | percentage damage caused to the plant, SETFA (five-point scale) (Setaria faberi (SETFA) [3]) | percentage damage caused to the plant, AMARE (five-point scale) [4] | percentage damage caused to the plant, ECHCG (five-point scale) [5] | percentage damage caused to the plant, IPOHE (five-point scale) [6] | percentage damage caused to the plant, ABUTH (five-point scale) [7] | percentage damage caused to the plant, five-point scale, ECHCG [8] | percentage damage caused to the plant, five-point scale, IPOHE [9] | percentage damage caused to the plant, five-point scale, ZEAMX (Zea mays (ZEAMX) [10]) | percentage damage caused to the plant, five-point scale, ABUTH [11] | percentage damage caused to the plant, five-point scale, AMARE [12] |
| --- | --- | --- | --- | --- | --- | --- | --- | --- | --- | --- | --- | --- |
| CS(=O)(=O)c1c(Br)ccc2c1c(=O)c(C(=O)O)nn2-c1ccc(OC(F)(F)F)cc1 [Compound P12, 6-bromo-5-methylsulfonyl-4-oxo-1-[4-(trifluoromethoxy)phenyl]cinnoline-3-carboxylic acid] | 4 (4=61-80%) | 1 (1=10-20%) | 3 (3=41-60%) | 1 (1=10-20%) | 3 (3=41-60%) | 0 (0=0%) | 1 (1=10-20%) | 1 (1=10-20%) | 0 (0=0%) | 0 (0=0%) | 1 (1=10-20%) | 0 (0=0%) |
| Cc1ccc2c(c1S(C)(=O)=O)c(=O)c(C(=O)O)nn2-c1ccc(OC(F)(F)F)cc1 [Compound P6, 6-methyl-5-methylsulfonyl-4-oxo-1-[4-(trifluoromethoxy)phenyl]cinnoline-3-carboxylic acid] | 4 (4=61-80%) | 1 (1=10-20%) | 3 (3=41-60%) | 2 (2=21-40%) | 4 (4=61-80%) | 1 (1=10-20%) | 1 (1=10-20%) | 3 (3=41-60%) | 1 (1=10-20%) | 1 (1=10-20%) | 2 (2=21-40%) | 1 (1=10-20%) |
| CCOC(=O)c1nn(-c2ccc(OC(F)(F)F)cc2)c2ccc(CC(C)C)c(S(C)(=O)=O)c2c1=O [Compound P45, ethyl 6-isobutyl-5-methylsulfonyl-4-oxo-1-[4-(trifluoromethoxy)phenyl]cinnoline-3-carboxylate] | 0 (0=0%) | 1 (1=10-20%) | 1 (1=10-20%) | 0 (0=0%) | 1 (1=10-20%) | 0 (0=0%) | 0 (0=0%) | 0 (0=0%) | 0 (0=0%) | 0 (0=0%) | 0 (0=0%) | 0 (0=0%) |
| CC(C)COC(=O)c1nn(-c2ccc(OC(F)(F)F)cc2)c2cccc(S(C)(=O)=O)c2c1=O [Compound P72, isobutyl 5-methylsulfonyl-4-oxo-1-[4-(trifluoromethoxy)phenyl]cinnoline-3-carboxylate] | 4 (4=61-80%) | 1 (1=10-20%) | 4 (4=61-80%) | 0 (0=0%) | 3 (3=41-60%) | 1 (1=10-20%) | 0 (0=0%) | 4 (4=61-80%) | 0 (0=0%) | 0 (0=0%) | 0 (0=0%) | 0 (0=0%) |
| COC(C)(C)CCOC(=O)c1nn(-c2ccc(OC(F)(F)F)cc2)c2cccc(S(C)(=O)=O)c2c1=O [Compound P85, (3-methoxy-3-methyl-butyl) 5-methysulfonyl-4-oxo-1-[4-(trifluoromethoxy)phenyl]cinnoline-3-carboxylate] | 4 (4=61-80%) | 1 (1=10-20%) | 4 (4=61-80%) | 1 (1=10-20%) | 3 (3=41-60%) | 0 (0=0%) | 1 (1=10-20%) | 4 (4=61-80%) | 0 (0=0%) | 0 (0=0%) | 0 (0=0%) | 0 (0=0%) |
| CN(C)CCOC(=O)c1nn(-c2ccc(OC(F)(F)F)cc2)c2cccc(S(C)(=O)=O)c2c1=O [Compound P76, 2-(dimethylamino)ethyl 5-methylsulfonyl-4-oxo-1-[4-(trifluoromethoxy)phenyl]cinnoline-3-carboxylate] | 4 (4=61-80%) | 1 (1=10-20%) | 4 (4=61-80%) | 1 (1=10-20%) | 3 (3=41-60%) | 1 (1=10-20%) | 2 (2=21-40%) | 3 (3=41-60%) | 0 (0=0%) | 0 (0=0%) | 1 (1=10-20%) | 0 (0=0%) |
| CCOC(=O)c1nn(-c2ccc(OC(F)(F)F)cc2)c2ccc(C)c(S(C)(=O)=O)c2c1=O [Compound P8, ethyl 6-methyl-5-methylsulfonyl-4-oxo-1-[4-(trifluoromethoxy)phenyl]cinnoline-3-carboxylic acid] | 4 (4=61-80%) | 1 (1=10-20%) | 4 (4=61-80%) | 1 (1=10-20%) | 4 (4=61-80%) | 1 (1=10-20%) | 1 (1=10-20%) | 3 (3=41-60%) | 1 (1=10-20%) | 1 (1=10-20%) | 1 (1=10-20%) | 1 (1=10-20%) |
| CC(C)Cc1ccc2c(c1S(C)(=O)=O)c(=O)c(C(=O)O)nn2-c1ccc(OC(F)(F)F)cc1 [Compound P15, 6-isobutyl-5-methylsulfonyl-4-oxo-1-[4-(trifluoromethoxy)phenyl]cinnoline-3-carboxylic acid] | 1 (1=10-20%) | 1 (1=10-20%) | 1 (1=10-20%) | 1 (1=10-20%) | 1 (1=10-20%) | 0 (0=0%) | 1 (1=10-20%) | 1 (1=10-20%) | 0 (0=0%) | 0 (0=0%) | 1 (1=10-20%) | 1 (1=10-20%) |
| CS(=O)(=O)c1cc(F)cc2c1c(=O)c(C(=O)O)nn2-c1ccc(OC(F)(F)F)cc1 [Compound P21, 7-fluoro-5-methylsulfonyl-4-oxo-1-[4-(trifluoromethoxy)phenyl]cinnoline-3-carboxylic acid] | 4 (4=61-80%) | 0 (0=0%) | 2 (2=21-40%) | 0 (0=0%) | 2 (2=21-40%) | 0 (0=0%) | 0 (0=0%) | 2 (2=21-40%) | 0 (0=0%) | 1 (1=10-20%) | 0 (0=0%) | 0 (0=0%) |
